“Also recorded” adds a separate entry of the source.

Data on one compound can be found in patent publication US7943603B2, “Medical uses of a selective estrogen receptor modulator in combination with sex steroid precursors” (Endorecherche, Inc., priority 1998, dated 2011).

One data set has as its target T1, estrogen receptor (Homo sapiens, UniProt P03372).
T1 sequence (P03372 1-595): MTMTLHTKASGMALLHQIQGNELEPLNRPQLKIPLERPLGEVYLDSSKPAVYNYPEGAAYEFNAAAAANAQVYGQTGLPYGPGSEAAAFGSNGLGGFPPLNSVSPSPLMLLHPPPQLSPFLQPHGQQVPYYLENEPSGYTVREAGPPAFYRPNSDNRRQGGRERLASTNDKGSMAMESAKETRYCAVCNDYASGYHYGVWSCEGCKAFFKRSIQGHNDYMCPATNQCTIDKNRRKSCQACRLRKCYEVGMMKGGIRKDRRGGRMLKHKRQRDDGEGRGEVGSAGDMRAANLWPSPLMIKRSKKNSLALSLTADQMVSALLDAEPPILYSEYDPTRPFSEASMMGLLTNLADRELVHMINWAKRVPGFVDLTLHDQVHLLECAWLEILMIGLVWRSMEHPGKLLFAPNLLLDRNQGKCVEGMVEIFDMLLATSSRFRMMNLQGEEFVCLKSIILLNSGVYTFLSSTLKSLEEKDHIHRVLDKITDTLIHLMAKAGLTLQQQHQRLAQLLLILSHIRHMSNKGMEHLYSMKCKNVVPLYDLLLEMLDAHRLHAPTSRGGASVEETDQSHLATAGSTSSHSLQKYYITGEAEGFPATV
Kind of data set: Testing of antiestrogens for function as SERM.

For data set [1], the system named is ovariectomized (OVX) nude mice supplemented with estrone. Kind of data set: Uterine, vaginal and body weight in OVX nude mice bearing ZR-75-1 xenografts. Particulars: OVX+E1 nude mice, 9.5 months. As for the experimental part:
A posteriori pairwise comparisons were performed using Fisher's test for least significant difference. Main effects and the interaction of treatments on body weight and organ weight were analyzed using a standard two-way ANOVA with interactions. All ANOVAs were performed using SAS program (SAS Institute, Cary, N.C., USA). Significance of differences were declared using a 2-tailed test with an overall level of 5%.

Another data set relates to rat. Kind of data set: Urine and serum biochemical parameters of bone metabolism. It is filed as in vivo. The settings on record: DHEA 10 mg percutaneously, EM-800 75 μg orally, once daily, alone or in combination, 9 months. The source says: The animals were randomly divided into groups each containing 20 rats with the exception of 40 animals in the control group. […] Treatment was initiated 3 days before the oral administration of DMBA. EM-800 was synthesized in the Medicinal Chemistry Division of our laboratory while DHEA was purchased from Steraloids Inc., Wilton, N.H.
Twenty-four-hour urinary samples were collected at the end of the experiment from the first 9 rats of each group following transfer in metabolic cages (Allentown Caging Equipment Co., Allentown, N.J.). Two urinary samples were collected and analyzed on different days for each animal in order to minimize the influence of daily variation. Therefore, each value shown represents the mean of the two measurements performed on two different days. 0.5 ml of toluene was added into the urine collecting tubes to prevent urine evaporation and bacterial growth and the urinary volume was recorded. Trunk blood was collected at sacrifice and was allowed to clot at 4° C. overnight before centrifugation at 3000 rpm for 30 min.
Fresh samples were used for the assay of urinary creatinine, calcium, and phosphorus as well as serum total alkaline phosphatase (tALP) activity, cholesterol and triglycerides. These biochemical parameters were measured automatically with a Monarch 2000 Chemistry System (Instrumentation Laboratory Co. Lexington, Mass.) under Good Laboratory Practice conditions. Urinary hydroxyproline was measured as described (Podenphant et al., Clinica Chimica Acta 142: 145-148, 1984).

On to `CC1=C(c2ccc(OC(=O)C(C)(C)C)cc2)[C@H](c2ccc(OCCN3CCCCC3)cc2)Oc2cc(OC(=O)C(C)(C)C)ccc21` [EM-800, (+)-7-pivaloyloxy-3-(4′-pivaloyloxyphenyl)-4-methyl-2-(4″-(2′″-piperidinoethoxy)phenyl)-2H-benzopyran], for which the “function as SERM” value at estrogen receptor is reported as “found to function as SERMs”. Further, the vaginal weight in data set [1] (EM-800 15 μg daily) was found to be 23 ± 1 mg; in data set [1] (EM-800 50 μg daily), 15 ± 1 mg; in data set [1] (EM-800 100 μg daily), 11 ± 1 mg. For the same compound, the values for the uterine weight in data set [1] (EM-800 15 μg orally daily), in data set [1] (EM-800 50 μg orally daily) and in data set [1] (EM-800 100 μg orally daily) were 49 ± 3 mg, 36 ± 2 mg and 32 ± 1 mg, respectively. The “effect on body weight adjusted for tumor weight” value in data set [1] is reported as “No significant effect”. Also, in the data set on rat, the “decrease of daily urinary calcium excretion versus control” value is “no statistically significant influence”. In addition, the “decrease of daily urinary phosphorus excretion versus control” value with rat is reported as “no statistically significant influence”. In addition, in the data set on rat, the “decrease of urinary hydroxyproline/creatinine ratio versus control” value was 48%. For the same compound, the “increase of serum total alkaline phosphatase (tALP) activity versus control” value in the data set on rat is on record as “no statistically significant influence; also recorded: no effect”.
